# Article PMC3626541, “A first in human, safety, pharmacokinetics, and clinical activity phase I study of once weekly administration of the Hsp90 inhibitor ganetespib (STA-9090) in patients with solid malignancies” (BMC Cancer, 2013)
# What was measured:
# advanced solid tumors = assay: Tumor response (RECIST v1.0); format: in vivo, human; conditions: for Disease control rate (≥ 8 weeks): complete and partial responses, and stable disease ≥ 8 weeks; for Disease control rate (≥ 16 weeks): complete and partial responses, and stable disease ≥ 16 weeks; for Best response: Complete response / Best response: Non-evaluable / Best response: Partial response / Best response: Progressive disease / Best response: Stable disease: investigator-evaluated
# Procedure: Patients’ demographics and medical history were recorded at baseline. Physical examination and PS were assessed at baseline and on Day 1 of each cycle. Adverse events (AEs), vital signs, hematology and chemistry values, and creatinine clearance were assessed at baseline and weekly during treatment. Toxicity was graded using National Cancer Institute Common Terminology Criteria for Adverse Events (NCI CTCAE), version 3.0. An electrocardiogram (ECG) was performed at baseline, before and after treatment on Days 1 and 15 of Cycles 1 and 2, and on Day 15 of even-numbered cycles thereafter. CT scans were done at baseline and every 8 weeks thereafter. Tumor response was assessed using Response Evaluation Criteria in Solid Tumors (RECIST, v1.0), with confirmation of responses performed at least 4 weeks later.
# [1] = Plasma pharmacokinetics (HPLC-MS/MS, non-compartmental); format: in vivo, human
# Procedure: Blood samples were taken for ganetespib plasma concentration determination on Days 1 and 15 of Cycle 1 pre-dose, 0.5, 1, 1.5, 2, 4, 6, 8 and 24 h after infusion initiation. Samples were also drawn pre-dose and at 1 h, on Day 8 of Cycle 1 and Days 1, 8 and 15 of subsequent cycles. Plasma was separated and stored at a −70°C until analysis. Analyses were performed by a validated HPLC-MS/MS method under GLP conditions at Synta Pharmaceuticals Corp. Calibration curve coefficients of determination (r^2) ranged from 0.9897 to 0.9992. Back-calibrated calibration standards were in good agreement with QC samples with bias ≤ ± 3%, and calibration-curve r^2 variation was ≤ ± 6.5% across a concentration range of 0.100 through 100 ng/ml.
# Pharmacokinetic parameters were computed non-compartmentally using standard methods within a validated installation of WinNonlin (v4.1, Pharsight Corporation, St. Louis, MO). Parameters included the maximum concentration (Cmax), area under the plasma concentration versus time curve (AUC), time of maximum concentration (Tmax), and terminal elimination half-life (t1/2).
# [2] = one NSCLC patient, 150 mg/m^2, BRAF G469A mutation
# [3] = 1-hour IV infusion, across doses
smiles,measurement,setting,value
"CC(C)c1cc(-c2n[nH]c(=O)n2-c2ccc3c(ccn3C)c2)c(O)cc1O [Ganetespib, 5-[2,4-dihydroxy-5-(1 methyl-ethyl)phenyl]-2,4 dihydro-4-(1-methyl-1H indol-5 yl)-3H-1,2,4 triazole-3-one]",Disease control rate (≥ 8 weeks),"advanced solid tumors; 259 mg/m^2, n = 6",2 (33.3) n (%)
same,Disease control rate (≥ 16 weeks),"advanced solid tumors; 259 mg/m^2, n = 6",2 (33.3) n (%)
same,Best response: Complete response,"advanced solid tumors; 259 mg/m^2, n = 6",0 n (%)
same,Best response: Non-evaluable,"advanced solid tumors; 259 mg/m^2, n = 6",1 (16.7) n (%)
same,Best response: Partial response,"advanced solid tumors; 259 mg/m^2, n = 6",0 n (%)
same,Best response: Progressive disease,"advanced solid tumors; 259 mg/m^2, n = 6",3 (50) n (%)
same,Best response: Stable disease,"advanced solid tumors; 259 mg/m^2, n = 6",2 (33.3) n (%)
same,Disease control rate (≥ 8 weeks),"advanced solid tumors; 7-114 mg/m^2, n = 25",11 (44) n (%)
same,Disease control rate (≥ 16 weeks),"advanced solid tumors; 7-114 mg/m^2, n = 25",5 (20) n (%)
same,Best response: Complete response,"advanced solid tumors; 7-114 mg/m^2, n = 25",0 n (%)
same,Best response: Non-evaluable,"advanced solid tumors; 7-114 mg/m^2, n = 25",4 (16) n (%)
same,Best response: Partial response,"advanced solid tumors; 7-114 mg/m^2, n = 25",1 (4) n (%)
same,Best response: Progressive disease,"advanced solid tumors; 7-114 mg/m^2, n = 25",10 (40) n (%)
same,Best response: Stable disease,"advanced solid tumors; 7-114 mg/m^2, n = 25",10 (40) n (%)
same,Patients with SD for at least 8 weeks,advanced solid tumors; 10 patients with NSCLC,60%
same,Duration of SD (range),advanced solid tumors; 23 patients with SD,46 to 563 days
same,Disease control rate (≥ 8 weeks),"advanced solid tumors; 150-216 mg/m^2, n = 22",11 (50) n (%)
same,Disease control rate (≥ 16 weeks),"advanced solid tumors; 150-216 mg/m^2, n = 22",6 (27.3) n (%)
same,Best response: Complete response,"advanced solid tumors; 150-216 mg/m^2, n = 22",0 n (%)
same,Best response: Non-evaluable,"advanced solid tumors; 150-216 mg/m^2, n = 22",6 (27.3) n (%)
same,Best response: Partial response,"advanced solid tumors; 150-216 mg/m^2, n = 22",0 n (%)
same,Best response: Progressive disease,"advanced solid tumors; 150-216 mg/m^2, n = 22",5 (22.7) n (%)
same,Best response: Stable disease,"advanced solid tumors; 150-216 mg/m^2, n = 22",11 (50) n (%)
same,Disease control rate (≥ 8 weeks),"advanced solid tumors; Overall response, n = 53",24 (45.3) n (%)
same,Disease control rate (≥ 16 weeks),"advanced solid tumors; Overall response, n = 53",13 (24.5) n (%)
same,Best response: Complete response,"advanced solid tumors; Overall response, n = 53",0 n (%)
same,Best response: Non-evaluable,"advanced solid tumors; Overall response, n = 53",11 (20.8) n (%)
same,Best response: Partial response,"advanced solid tumors; Overall response, n = 53",1 (1.9) n (%)
same,Best response: Progressive disease,"advanced solid tumors; Overall response, n = 53",18 (34) n (%)
same,Best response: Stable disease,"advanced solid tumors; Overall response, n = 53",23 (43.4) n (%)
same,Disease control rate (PR and SD ≥ 16 weeks),advanced solid tumors; all patients,24.5%
same,Patients with SD,advanced solid tumors; all patients,43.4%
same,Doses generally associated with disease stabilization,advanced solid tumors; heavily pre-treated patients with metastatic cancers,higher than 80 mg/m^2
same,Patients with PR,advanced solid tumors; metastatic colorectal cancer,One patient
same,Maximum reduction in target lesions,advanced solid tumors; [2],26.5%
same,Time on study,advanced solid tumors; [2],13 months
same,Maximum reduction in target lesions,"advanced solid tumors; one patient with metastatic GIST, 216 mg/m^2, PDGFRA^D842V exon 18 mutation",18%
same,Duration of disease stabilization,"advanced solid tumors; one patient with neuroendocrine tumor, 259 mg/m^2",over 20 months
same,Tmax occurrence at the time of the 0.5 h sample,[1]; 1-hour IV infusion,39 % of drug administrations
same,Mean steady state volume of distribution (Vss),[1]; [3],107 ± 98 L/m^2
same,Plasma drug clearance,[1]; [3],28.55 ± 9.33 L/h/m^2
same,Tmax,"[1]; human, plasma, 1-hour IV infusion",0.79 h
same,Vd,"[1]; human, plasma, 1-hour IV infusion, across doses, read-out: Mean steady state volume of distribution (Vss)",196 ± 172 L
same,clearance,"[1]; human, plasma, 1-hour IV infusion, across doses, read-out: Plasma drug clearance (converted)",877 mL/min
same,half-life,"[1]; human, plasma, 1-hour IV infusion, across doses, read-out: Terminal t1/2 (mean ± SD) (converted)",~7.54 h
same,Drug accumulation,"[1]; once-weekly doses, Day 1 vs Day 15",no apparent drug accumulation
same,Coefficient of variation for clearance,[1]; overall variability in exposure,33.8%
same,Plasma concentration as % of Cmax,[1]; within 8 to 10 h,~1 % of Cmax
same,Plasma concentration as % of Cmax,[1]; within 1 h of infusion termination,approximately 10 % of Cmax
